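1) Cells in 96-well plates. 2) Compound, 48 h, 5 concentrations. 3) Linear interpolation between surrounding doses. 4) Unreached endpoint = highest concentration. GI50 is the concentration that inhibits growth by half.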 Calls of active or inactive are those of the source. No stated cut-off is given here; in the data, active = GI50 up to about 1.1 µM and inactive = higher.
Legend:
Experiment in all cases: DTP human tumour cell line panel, 48 h
SK-MEL-28 = test system: SK-MEL-28
HOP-62 = test system: HOP-62
COLO 205 = test system: COLO 205
HCC 2998 = test system: HCC 2998
MDA-MB-231 = test system: MDA-MB-231
DU-145 = test system: DU-145
HCT-116 = test system: HCT-116
BT-549 = test system: BT-549
UACC-257 = test system: UACC-257
OVCAR-4 = test system: OVCAR-4
MDA-MB-435 = test system: MDA-MB-435
Hs-578T = test system: Hs-578T
RPMI-8226 = test system: RPMI-8226
EKVX = test system: EKVX
A549 = test system: A549
786-0 = test system: 786-0
HT-29 = test system: HT-29
HL-60 = test system: HL-60
HCT-15 = test system: HCT-15
NCI-H522 = test system: NCI-H522

SMILES | GI50 (SK-MEL-28) | GI50 (HOP-62) | GI50 (COLO 205) | GI50 (HCC 2998) | GI50 (MDA-MB-231) | GI50 (DU-145) | GI50 (HCT-116) | GI50 (BT-549) | GI50 (UACC-257) | GI50 (OVCAR-4) | GI50 (MDA-MB-435) | GI50 (Hs-578T) | GI50 (RPMI-8226) | GI50 (EKVX) | GI50 (A549) | GI50 (786-0) | GI50 (HT-29) | GI50 (HL-60) | GI50 (HCT-15) | GI50 (NCI-H522)
Cn1c(-c2cccc([N+](=O)[O-])c2)[n+](C)c2ccccc21 | > 100 µM (inactive) | > 100 µM (inactive) | 17.7 µM (inactive) | > 100 µM (inactive) | > 100 µM (inactive) | > 100 µM (inactive) | > 100 µM (inactive) | > 100 µM (inactive) | > 100 µM (inactive) | > 100 µM (inactive) | > 100 µM (inactive) | > 100 µM (inactive) | > 100 µM (inactive) | > 100 µM (inactive) | 46.9 µM (inactive) | > 100 µM (inactive) | 40.9 µM (inactive) | 29.2 µM (inactive) | > 100 µM | 
COC(=O)C1=C(C)NC(C)=C(C(=O)OC)C1c1cccc(NO)c1 | 15.1 µM (inactive) | 32.3 µM (inactive) | 16.7 µM (inactive) | 56.8 µM (inactive) | 16.6 µM (inactive) | 22 µM (inactive) | 13 µM (inactive) | 18.4 µM (inactive) | 14.4 µM (inactive) | 13.9 µM (inactive) | 16.8 µM (inactive) | 18.4 µM (inactive) | > 100 µM (inactive) | 22.2 µM (inactive) | > 100 µM (inactive) | 15 µM (inactive) | 16 µM (inactive) |  | 19.3 µM | 7 µM (inactive)
COc1ccc(/C=N/n2c(C)n[nH]c2=O)c(OC)c1 | > 100 µM (inactive) | > 100 µM (inactive) | > 100 µM (inactive) | > 100 µM (inactive) | > 100 µM (inactive) | 71.6 µM (inactive) | > 100 µM (inactive) | > 100 µM (inactive) | > 100 µM (inactive) | > 100 µM (inactive) | 90.4 µM (inactive) | 3.08 µM (inactive) | > 100 µM (inactive) | 83 µM (inactive) | > 100 µM (inactive) | > 100 µM (inactive) | > 100 µM (inactive) |  | > 100 µM | 
O=C1c2ccccc2C(=O)N1CC1(C(=O)O)NCCS1(=O)=O (stereo not drawn) | > 100 µM (inactive) | > 100 µM (inactive) | > 100 µM (inactive) |  | > 100 µM (inactive) |  | > 100 µM (inactive) | > 100 µM (inactive) | > 100 µM (inactive) | > 100 µM (inactive) | > 100 µM (inactive) | > 100 µM (inactive) | > 100 µM (inactive) | 91.4 µM (inactive) | > 100 µM (inactive) | > 100 µM (inactive) | > 100 µM (inactive) | > 100 µM (inactive) | > 100 µM | > 100 µM (inactive)
COc1cc2c(cc1O)c(O)cc1c3cc(OC)c(OC)cc3c[n+](C)c21 | > 100 µM (inactive) | 34.1 µM (inactive) | > 43.3 µM (inactive) | > 91 µM (inactive) | 35.3 µM (inactive) | 7.52 µM (inactive) | 23.1 µM (inactive) | 23 µM (inactive) | 51.8 µM (inactive) | > 80.5 µM (inactive) | 16.4 µM (inactive) | 4.23 µM (inactive) | > 32.8 µM (inactive) | > 100 µM (inactive) | 44 µM (inactive) | 7.4 µM (inactive) | 15.2 µM (inactive) |  | > 100 µM | 0.0225 µM (active)
Cc1cc(OP2(=O)NCc3ccncc3O2)ccc1Cl (stereo not drawn) | > 100 µM (inactive) | > 100 µM (inactive) | > 100 µM (inactive) | > 100 µM (inactive) | > 100 µM (inactive) | > 100 µM (inactive) | > 100 µM (inactive) | > 100 µM (inactive) | > 100 µM (inactive) | > 100 µM (inactive) | > 100 µM (inactive) |  | > 100 µM (inactive) | > 100 µM (inactive) | > 100 µM (inactive) | > 100 µM (inactive) | > 100 µM (inactive) |  | > 100 µM | 
CNc1nc(C(N)=O)c(N)s1 | > 100 µM (inactive) | > 100 µM (inactive) | > 100 µM (inactive) |  | > 100 µM (inactive) | > 100 µM (inactive) | > 100 µM (inactive) | > 100 µM (inactive) | > 100 µM (inactive) | > 100 µM (inactive) | > 100 µM (inactive) | > 100 µM (inactive) | > 100 µM (inactive) | > 100 µM (inactive) | > 100 µM (inactive) | > 100 µM (inactive) | > 100 µM (inactive) | > 100 µM (inactive) | > 100 µM | > 100 µM (inactive)
COc1ccc2[nH]cc(C(=O)C(=O)NC34CC5CC(CC(C5)C3)C4)c2c1 | 15.4 µM (inactive) | 16.5 µM (inactive) | 6.9 µM (inactive) | 28.1 µM (inactive) | 40.1 µM (inactive) | 39.4 µM (inactive) | 20.6 µM (inactive) | 43.3 µM (inactive) | 67.5 µM (inactive) | 29.6 µM (inactive) | 41.3 µM (inactive) | 21.4 µM (inactive) | 4.69 µM (inactive) | > 50.1 µM (inactive) | 26.2 µM (inactive) | 8.09 µM (inactive) | 2.08 µM (inactive) |  | 9.16 µM | 36.7 µM (inactive)
S=C(/N=c1\sc(Nc2ccc(Cl)cc2)nc2sc3c(c12)CCN(N1CCc2c(sc4nc(Nc5ccc(Cl)cc5)s/c(=N\C(=S)Nc5ccc(Cl)cc5)c24)C1)C3)Nc1ccc(Cl)cc1 | 38.2 µM (inactive) | 36.1 µM (inactive) | 57.9 µM (inactive) |  | 18.6 µM (inactive) | 25.4 µM (inactive) | 17.9 µM (inactive) | > 100 µM (inactive) | 43.5 µM (inactive) |  |  | > 100 µM (inactive) |  | 61.7 µM (inactive) | 55.2 µM (inactive) | 18 µM (inactive) | 19 µM (inactive) |  | 42.2 µM | 96.2 µM (inactive)
CC12CCC(C(Nc3cc(C(F)(F)F)cc(C(F)(F)F)c3)C1=O)C2(C)C (stereo not drawn) | > 100 µM (inactive) | > 100 µM (inactive) | > 100 µM (inactive) | > 100 µM (inactive) | > 100 µM (inactive) | > 100 µM (inactive) | > 100 µM (inactive) | > 100 µM (inactive) | > 100 µM (inactive) | > 100 µM (inactive) | > 100 µM (inactive) |  | > 100 µM (inactive) | > 100 µM (inactive) | > 100 µM (inactive) | > 100 µM (inactive) | > 100 µM (inactive) |  | > 100 µM | 
CN(Cc1cnc2nc(N)nc(N)c2n1)c1ccc(C(=O)N[C@@H](CCS(=O)(=O)O)C(=O)O)cc1 | > 100 µM (inactive) | 1.99 µM (inactive) | > 100 µM (inactive) | 0.61 µM (active) | > 100 µM (inactive) | 0.562 µM (active) | 0.0352 µM (active) | 0.404 µM (active) | > 100 µM (inactive) | > 100 µM (inactive) |  | > 100 µM (inactive) |  | > 73.3 µM (inactive) | 0.182 µM (active) | 0.0583 µM (active) |  |  | 0.0514 µM | 0.574 µM (active)
CN(C)CCO/N=C1/C=C2CC[C@H]3[C@@H]4CC[C@H](O)[C@@]4(C)CC[C@@H]3[C@@]2(C)CC1 | 13.8 µM (inactive) | 12.1 µM (inactive) | 16.2 µM (inactive) | 9.82 µM (inactive) | 12.9 µM (inactive) | 16.7 µM (inactive) | 10.5 µM (inactive) | 2.61 µM (inactive) | 12.9 µM (inactive) | 2.49 µM (inactive) | 3.49 µM (inactive) | 4.91 µM (inactive) | 25.2 µM (inactive) | 15.6 µM (inactive) | 18.3 µM (inactive) | 8.85 µM (inactive) | 1.05 µM (active) |  | 13.9 µM | 1.67 µM (inactive)
CCCCCCCCCCCCCCCCOP(=O)(O)OP(=O)(O)OCC1OC(n2ccc(N)nc2=O)CC1O (stereo not drawn) | > 100 µM (inactive) | > 100 µM (inactive) | > 100 µM (inactive) | > 100 µM (inactive) | > 100 µM (inactive) |  | > 100 µM (inactive) | > 100 µM (inactive) | > 100 µM (inactive) | > 100 µM (inactive) | > 100 µM (inactive) | > 100 µM (inactive) | > 100 µM (inactive) | > 100 µM (inactive) | > 100 µM (inactive) | > 100 µM (inactive) | > 100 µM (inactive) | > 100 µM (inactive) | > 100 µM | > 100 µM (inactive)
CN(C)CCCNc1c2ccccc2[n+]([O-])c2ccccc12 | > 100 µM (inactive) | 43.5 µM (inactive) | 13.3 µM (inactive) |  | 63.4 µM (inactive) | > 100 µM (inactive) | 34 µM (inactive) | 19.1 µM (inactive) | 56.8 µM (inactive) | 27.1 µM (inactive) | 50.8 µM (inactive) | 22.6 µM (inactive) | 46.7 µM (inactive) | 40.6 µM (inactive) | 44.6 µM (inactive) | 40.6 µM (inactive) | 7.06 µM (inactive) | 51.8 µM (inactive) | 41.4 µM | 28.2 µM (inactive)
Cc1cnc2nc(-c3ccc4ccccc4c3)cc(O)c2c1 | > 100 µM (inactive) | 0.851 µM (active) | 0.342 µM (active) | 1.4 µM (inactive) | 1.05 µM (active) | 0.408 µM (active) |  | > 100 µM (inactive) |  | 0.659 µM (active) |  | 0.449 µM (active) | 0.305 µM (active) |  | 0.625 µM (active) | 0.61 µM (active) | 0.53 µM (active) |  | 0.439 µM | 0.321 µM (active)
